# Measured values as given in patent publication US8545872B2, “Device for the transdermal administration of a rotigotine base” (UCB Pharma GmbH, priority 2002, dated 2013).
# Columns and labels:
# [1] = cited from earlier work
# [2] = Solubility of rotigotine in polymers and solvents; format: physicochemical; settings: e.g. hexane, ethyl acetate and toluol
smiles,measurement,setting,value
"CCCN(CCc1cccs1)[C@H]1CCc2c(O)cccc2C1 [Rotigotine, (−)-5,6,7,8-tetrahydro-6-[propyl[2-(2-thienyl)ethyl]amino]-1-naphtol]",Solubility in hydrophobic polymers such as silicon,[1],only feebly soluble
same,Solubility of the crystals in solvents suitable for dissolving matrix polymers,[2],nearly insoluble
